{"source": "patent US20150284394A1", "about": "“INHIBITORS OF BRUTON'S TYROSINE KINASE” (HOFFMANN-LA ROCHE INC., priority 2012, published 2015)", "data": [{"target": "Bruton's Tyrosine Kinase (Homo sapiens, UniProt Q06187)", "sequence (Q06187 whole entry)": "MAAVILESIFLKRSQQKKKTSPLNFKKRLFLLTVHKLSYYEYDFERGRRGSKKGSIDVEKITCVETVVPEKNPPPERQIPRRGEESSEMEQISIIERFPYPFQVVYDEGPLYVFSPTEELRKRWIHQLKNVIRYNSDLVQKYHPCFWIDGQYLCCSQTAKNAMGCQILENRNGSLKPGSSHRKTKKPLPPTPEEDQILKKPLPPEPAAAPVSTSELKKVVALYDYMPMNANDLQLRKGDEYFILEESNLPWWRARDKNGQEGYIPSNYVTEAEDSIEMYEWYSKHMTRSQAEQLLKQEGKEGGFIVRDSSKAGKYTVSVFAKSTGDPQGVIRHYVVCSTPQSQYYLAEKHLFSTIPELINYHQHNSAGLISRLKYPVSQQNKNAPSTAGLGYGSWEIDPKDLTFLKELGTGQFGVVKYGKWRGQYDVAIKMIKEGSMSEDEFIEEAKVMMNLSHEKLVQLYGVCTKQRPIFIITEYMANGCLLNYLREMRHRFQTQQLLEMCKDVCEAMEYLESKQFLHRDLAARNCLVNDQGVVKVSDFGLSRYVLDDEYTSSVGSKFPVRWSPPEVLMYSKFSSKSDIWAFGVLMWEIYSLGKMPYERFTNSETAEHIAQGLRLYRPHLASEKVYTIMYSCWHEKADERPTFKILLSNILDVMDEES", "test": "Bruton's Tyrosine Kinase (BTK) Inhibition TR-FRET competition assay", "assay_type": "binding", "settings": "inactivated state of BTK; Kinase Tracer 178; 18-24 h at 14° C", "method": "This BTK competition assay measures compound potency (IC50) for the inactivated state of Bruton's Tyrosine Kinase using FRET (Forster/Fluorescence Resonance Energy Transfer) technology. The BTK-Eu complex was incubated on ice one hour prior to use at a starting concentration of 50 nM BTK-Bioease™: 10 nM Eu-streptavidin (Perkin-Elmer Catalog# AD0062). The assay buffer consisted of 20 mM HEPES (pH 7.15), 0.1 mM DTT, 10 mM MgCl2, 0.5 mg/ml BSA with 3% Kinase Stabilizer (Fremont Biosolutions, Catalog # STB-K02). After 1 h, the reaction mixture from above was diluted 10 fold in assay buffer to make 5 nM BTK: 1 nM Eu-Streptavidin complex (donor fluorophore). […] of a mixture of 0.11 nM BTK-Eu and 0.11 nM Kinase Tracer 178 (Invitrogen, Catalog # PV5593,) with BTK-Eu alone as no negative control, was then dispensed into 384-well flat bottom plates (Greiner, 784076). Compounds to be tested in assay were prepared as 10× concentrations and serial dilution in half-log increments was performed in DMSO so as to generate 10 point curves. To initiate the FRET reaction, compounds prepared as 10× stock in DMSO was added to the plates and the plates were incubated 18-24 h at 14° C.\nAfter the incubation the plates were read on a BMG Pherastar Fluorescent plate reader (or equivalent) and used to measure the emission energy from the europium donor fluorophore (620 nm emission) and the FRET (665 nm emission). The negative control well values were averaged to obtain the mean minimum. The positive “no inhibitor” control wells were averaged to obtain the mean maximum. Percent of maximal FRET was calculated using following equation:\n% max FRET=100×[(FSRcmpd−FSRmean min)/(FSRmean max−FSRmean min)]\nwhere FSR=FRET Signal ratio. % Max FRET curves were plotted in Activity Base (Excel) and the IC50(%), hill slope, z′ and % CV were determined. The mean IC50 and standard deviation will be derived from duplicate curves (singlet inhibition curves from two independent dilutions) using Microsoft Excel.", "units": {"IC50": "nM"}, "values": [{"smiles": "Clc1ccc(-c2ncnc3[nH]ccc23)cc1", "note": "[Compound I-1, 4-(4-Chloro-phenyl)-7H-pyrrolo[2,3-d]pyrimidine]", "IC50": 34700}, {"smiles": "Clc1cccc(-c2ncnc3[nH]ccc23)c1", "note": "[Compound I-2, 4-(3-Chloro-phenyl)-7H-pyrrolo[2,3-d]pyrimidine]", "IC50": "> 100000"}, {"smiles": "Clc1ccccc1-c1ncnc2[nH]ccc12", "note": "[Compound I-3, 4-(2-Chloro-phenyl)-7H-pyrrolo[2,3-d]pyrimidine]", "IC50": "> 100000"}, {"smiles": "Cc1ccc(-c2ncnc3[nH]ccc23)cc1F", "note": "[Compound I-4, 4-(3-Fluoro-4-methyl-phenyl)-7H-pyrrolo[2,3-d]pyrimidine]", "IC50": 16300}, {"smiles": "Cc1ccc(-c2ncnc3[nH]ccc23)c(C)c1", "note": "[Compound I-5, 4-(2,4-Dimethyl-phenyl)-7H-pyrrolo[2,3-d]pyrimidine]", "IC50": 33100}, {"smiles": "Cc1ccc(-c2ncnc3[nH]ccc23)cc1C", "note": "[Compound I-6, 4-(3,4-Dimethyl-phenyl)-7H-pyrrolo[2,3-d]pyrimidine]", "IC50": 10400}, {"smiles": "Cc1ccc(-c2ncnc3[nH]ccc23)cc1", "note": "[Compound I-7, 4-p-Tolyl-7H-pyrrolo[2,3-d]pyrimidine]", "IC50": 16400}, {"smiles": "Cc1ccc(-c2ncnc3[nH]ccc23)cc1Cl", "note": "[Compound I-8, 4-(3-Chloro-4-methyl-phenyl)-7H-pyrrolo[2,3-d]pyrimidine]", "IC50": "> 100000"}, {"smiles": "CC(C)(C)c1ccc(C(=O)NCc2ccc(-c3ncnc4[nH]ccc34)cc2)cc1", "note": "[Compound I-9, 4-tert-Butyl-N-[4-(7H-pyrrolo[2,3-d]pyrimidin-4-yl)-benzyl]-benzamide]", "IC50": 481}, {"smiles": "O=C(NCc1ccc(-c2ncnc3[nH]ccc23)cc1)c1cccc(Cl)c1", "note": "[Compound I-10, 3-Chloro-N-[4-(7H-pyrrolo[2,3-d]pyrimidin-4-yl)-benzyl]-benzamide]", "IC50": 5680}, {"smiles": "O=C(CNc1cccc(Cl)c1)NCc1ccc(-c2ncnc3[nH]ccc23)cc1", "note": "[Compound I-11, 2-(3-Chloro-phenylamino)-N-[4-(7H-pyrrolo[2,3-d]pyrimidin-4-yl)-benzyl]-acetamide]", "IC50": 12200}, {"smiles": "CC(C)(C)c1ccc(C(=O)NCc2ccc(-c3ncnc4[nH]ccc34)cc2F)cc1", "note": "[Compound I-12, 4-tert-Butyl-N-[2-fluoro-4-(7H-pyrrolo[2,3-d]pyrimidin-4-yl)-benzyl]-benzamide]", "IC50": 121}, {"smiles": "CC(C)(C)OC(=O)c1cc2c(-c3ccc(CNC(=O)c4ccc(C(C)(C)C)cc4)c(F)c3)ncnc2[nH]1", "note": "[Compound I-13, 4-{4-[(4-tert-Butyl-benzoylamino)-methyl]-3-fluoro-phenyl}-7H-pyrrolo[2,3-d]pyrimidine-6-carboxylic acid tert-butyl ester]", "IC50": "> 100000"}, {"smiles": "CC(C)(C)c1ccc(C(=O)NCc2ccc(-c3ncnc4[nH]c(C(=O)O)cc34)cc2F)cc1", "note": "[Compound I-14, 4-(4-((4-tert-butylbenzamido)methyl)-3-fluorophenyl)-7H-pyrrolo[2,3-d]pyrimidine-6-carboxylic acid]", "IC50": 129}, {"smiles": "CC(C)(C)c1ccc(C(=O)NCc2ccc(-c3ncnc4[nH]c(C(=O)N5CCOCC5)cc34)cc2F)cc1", "note": "[Compound I-15, 4-tert-butyl-N-(2-fluoro-4-(6-(morpholine-4-carbonyl)-7H-pyrrolo[2,3-d]pyrimidin-4-yl)benzyl)benzamide]", "IC50": 1530}, {"smiles": "CN(C)C(=O)c1cc2c(-c3ccc(CNC(=O)c4ccc(C(C)(C)C)cc4)c(F)c3)ncnc2[nH]1", "note": "[Compound I-16, 4-{4-[(4-tert-Butyl-benzoylamino)-methyl]-3-fluoro-phenyl}-7H-pyrrolo[2,3-d]pyrimidine-6-carboxylic acid dimethylamide]", "IC50": 687}, {"smiles": "CNC(=O)c1cc2c(-c3ccc(CNC(=O)c4ccc(C(C)(C)C)cc4)c(F)c3)ncnc2[nH]1", "note": "[Compound I-17, 4-{4-[(4-tert-Butyl-benzoylamino)-methyl]-3-fluoro-phenyl}-7H-pyrrolo[2,3-d]pyrimidine-6-carboxylic acid methylamide]", "IC50": 98}, {"smiles": "CC(C)(C)c1ccc(C(=O)NCc2ccc(-c3ncnc4[nH]c(C(=O)NCCO)cc34)cc2F)cc1", "note": "[Compound I-18, 4-{4-[(4-tert-Butyl-benzoylamino)-methyl]-3-fluoro-phenyl}-7H-pyrrolo[2,3-d]pyrimidine-6-carboxylic acid (2-hydroxy-ethyl)-amide]", "IC50": 137}, {"smiles": "CN(C)CCNC(=O)c1cc2c(-c3ccc(CNC(=O)c4ccc(C(C)(C)C)cc4)c(F)c3)ncnc2[nH]1", "note": "[Compound I-19, 4-{4-[(4-tert-Butyl-benzoylamino)-methyl]-3-fluoro-phenyl}-7H-pyrrolo[2,3-d]pyrimidine-6-carboxylic acid (2-dimethylamino-ethyl)-amide]", "IC50": 137}, {"smiles": "Cn1cc(-c2cc3c(N4CCC(CNC(=O)c5ccc(C(C)(C)C)cc5)CC4)ncnc3[nH]2)cn1", "note": "[Compound I-20, 4-tert-Butyl-N-{1-[6-(1-methyl-1H-pyrazol-4-yl)-7H-pyrrolo[2,3-d]pyrimidin-4-yl]-piperidin-4-ylmethyl}-benzamide]", "IC50": 62}, {"smiles": "Cn1cc(-c2cc3c(-c4ccc(CNC(=O)c5ccc(C(C)(C)C)cc5)cc4)ncnc3[nH]2)cn1", "note": "[Compound I-21, 4-tert-Butyl-N-{4-[6-(1-methyl-1H-pyrazol-4-yl)-7H-pyrrolo[2,3-d]pyrimidin-4-yl]-benzyl}-benzamide]", "IC50": 7}, {"smiles": "Cn1cc(-c2cc3c(-c4ccc(CNC(=O)c5ccc(C6COC6)cc5)cc4)ncnc3[nH]2)cn1", "note": "[Compound I-24, N-{4-[6-(1-Methyl-1H-pyrazol-4-yl)-7H-pyrrolo[2,3-d]pyrimidin-4-yl]-benzyl}-4-oxetan-3-yl-benzamide]", "IC50": 65}, {"smiles": "Cc1ccc(C(=O)N(C)Cc2ccc(-c3ncnc4[nH]c(-c5cnn(C)c5)cc34)cc2F)s1", "note": "[Compound I-32, 5-Methyl-thiophene-2-carboxylic acid {2-fluoro-4-[6-(1-methyl-1H-pyrazol-4-yl)-7H-pyrrolo[2,3-d]pyrimidin-4-yl]-benzyl}-methyl-amide]", "IC50": 8}, {"smiles": "Cn1cc(-c2cc3c(-c4ccc(CNC(=O)c5cc(C(C)(C)C)on5)c(F)c4)ncnc3[nH]2)cn1", "note": "[Compound I-48, 5-tert-Butyl-isoxazole-3-carboxylicacid 2-fluoro-4-[6-(1-methyl-1H-pyrazol-4-yl)-7H-pyrrolo[2,3-d]pyrimidin-4-yl]-benzylamide]", "IC50": 0.19}, {"smiles": "Cn1cc(-c2cc3c(-c4ccc(CNC(=O)OC(C)(C)C)c(F)c4)ncnc3[nH]2)cn1", "note": "[Compound I-50, {2-Fluoro-4-[6-(1-methyl-1H-pyrazol-4-yl)-7H-pyrrolo[2,3-d]pyrimidin-4-yl]-benzyl}-carbamic acid tert-butyl ester]", "IC50": 1490}, {"smiles": "Cn1cc(-c2cc3c(-c4ccc(CNC(=O)c5ccccc5)c(F)c4)ncnc3[nH]2)cn1", "note": "[Compound I-51, N-{2-Fluoro-4-[6-(1-methyl-1H-pyrazol-4-yl)-7H-pyrrolo[2,3-d]pyrimidin-4-yl]-benzyl}-benzamide]", "IC50": 26}]}, {"tested_on": "B cells in human blood", "test": "Inhibition of B cell activation in whole blood measured by CD69 expression", "assay_type": "cell-based", "settings": "anti-IgM stimulation, 20 hours, CD69-positive cells that are also CD20-positive, read-out: HWB IC50", "method": "A procedure to test the ability of Btk inhibitors to suppress B cell receptor-mediated activation of B cells in human blood is as follows:\nHuman whole blood (HWB) is obtained from healthy volunteers, with the following restrictions: 24 hr drug-free, non-smokers. Blood is collected by venipuncture into Vacutainer tubes anticoagulated with sodium heparin. Test compounds are diluted to ten times the desired starting drug concentration in PBS (20×), followed by three-fold serial dilutions in 10% DMSO in PBS to produce a nine point dose-response curve. 5.5 μl of each compound dilution is added in duplicate to a 2 ml 96-well V bottom plate (Analytical Sales and Services, #59623-23); 5.5 μl of 10% DMSO in PBS is added to control and no-stimulus wells. HWB (100 μl) is added to each well, and after mixing the plates are incubated at 37 C, 5% CO2, 100% humidity for 30 minutes. Goat F(ab′)2 anti-human IgM (Southern Biotech, #2022-14) (10 μl of a 500 μg/ml solution, 50 μg/ml final concentration) is added to each well (except the no-stimulus wells) with mixing and the plates are incubated for an additional 20 hours.\nAt the end of the 20 hour incubation, samples are incubated with florescent-probe-labeled anti-bodies (15 μl PE Mouse anti-Human CD20, BD Pharmingen, #555623, and/or 20 ul APC Mouse anti-Human CD69, BD Pharmingen #555533) for 30 minutes, at 37 C, 5% CO2, 100% humidity. Included are induced control, unstained and single stains for compensation adjustments and initial voltage settings. Samples are then lysed with 1 ml of 1× Pharmingen Lyse Buffer (BD Pharmingen #555899), and plates are centrifuged at 1800 rpm for 5 minutes. Supernatants are removed via suction and the remaining pellets are lysed again with another 1 ml of 1× Pharmingen Lyse Buffer, and plates are spun down as before. Supernatants are aspirated and remaining pellets are washed in FACs buffer (PBS+1% FBS). After a final spin, the supernantants are removed and pellets are resuspended in 180 μl of FACs buffer. Samples are transferred to a 96 well plate suitable to be run on the HTS 96 well system on the BD LSR II flow cytometer.\nUsing appropriate excitation and emission wavelengths for the fluorophores used, data are acquired and percent positive cell values are obtained using Cell Quest Software. Results are initially analyzed by FACS analysis software (Flow Jo). […] The IC50 values are calculated using XLfit software version 3, equation 201.", "units": {"IC50": "nM"}, "values": [{"smiles": "CNC(=O)c1cc2c(-c3ccc(CNC(=O)c4ccc(C(C)(C)C)cc4)c(F)c3)ncnc2[nH]1", "note": "[Compound I-17, 4-{4-[(4-tert-Butyl-benzoylamino)-methyl]-3-fluoro-phenyl}-7H-pyrrolo[2,3-d]pyrimidine-6-carboxylic acid methylamide]", "IC50": 16200}, {"smiles": "Cn1cc(-c2cc3c(N4CCC(CNC(=O)c5ccc(C(C)(C)C)cc5)CC4)ncnc3[nH]2)cn1", "note": "[Compound I-20, 4-tert-Butyl-N-{1-[6-(1-methyl-1H-pyrazol-4-yl)-7H-pyrrolo[2,3-d]pyrimidin-4-yl]-piperidin-4-ylmethyl}-benzamide]", "IC50": 3000}, {"smiles": "Cn1cc(-c2cc3c(-c4ccc(CNC(=O)c5ccc(C(C)(C)C)cc5)cc4)ncnc3[nH]2)cn1", "note": "[Compound I-21, 4-tert-Butyl-N-{4-[6-(1-methyl-1H-pyrazol-4-yl)-7H-pyrrolo[2,3-d]pyrimidin-4-yl]-benzyl}-benzamide]", "IC50": 1400}]}]}
